Assay results taken from US4877795A, “4H-quinolizin-4-one compounds useful for the treatment of allergic bronchial asthma, allergic rhinitis atropic dermatitis and the like” (Kissei Pharmaceutical Co., Ltd., priority 1987, dated 1989).

How the values were obtained:
IgG = assay: Determination of Igs produced in in vitro culture: inhibition of IgG secreted by spleen cells (adoptive secondary immune response to DNP-As), ELISA; format: cell-based, BALB/c mice; details: 4 days culture; for inhibition at 2.5 µg/mL: 2.5 μg/ml; for inhibition at 5 µg/mL: 5.0 μg/ml; for inhibition at 40 µg/mL: 40.0 μg/ml; for inhibition at 1 µg/mL / Inhibition % of IgG: 1.0 μg/ml
Method: (§1) Determination of Igs produced in in vitro culture
(§2) BALB/c mice were immunized intraperitoneally with 5 μg of DNP-As adsorbed in 4 mg aluminum hydroxide gel. 4 weeks after the immunization, the spleens were excised from the mice and 5×10^7 spleen cells were transferred intravenously into the recipient mice which had been exposed to 600 rad of X-ray irradiation. Immediately after cell transfer, the recipients were then immunized intraperitoneally with 5 μg of DNP-As adsorbed in 4 mg aluminum hydroxide gel to induce adoptive secondary immune response. Further 4 weeks after the immunization of recipients, the spleens were excised from them and the spleen cell suspensions 5×10^6 cells/ml were cultured with or without a compound to be tested in 96-well micro plates at 37° C. for 4 days. IgE and IgG secreted into the culture supernatant was each determined correspondingly by ELISA and the inhibitory effect was calculated according to the following equation. [formula]

IgE = assay: Determination of Igs produced in in vitro culture: inhibition of IgE secreted by spleen cells (adoptive secondary immune response to DNP-As), ELISA; format: cell-based, BALB/c mice; details: 4 days culture; for inhibition at 2.5 µg/mL: 2.5 μg/ml; for inhibition at 5 µg/mL: 5.0 μg/ml; for inhibition at 40 µg/mL: 40.0 μg/ml; for inhibition at 1 µg/mL / Inhibition % of IgE: 1.0 μg/ml
Method: as §1, §2

**Q.** How did the inhibition at 2.5 µg/mL (IgG; Mus musculus, 96 h) turn out when `CSc1c(C#N)c(=O)n2ccccc2c1C(=O)N(C(C)C)C1CCCCC1` [S-69, 3-Cyano-N-cyclohexyl-N-isopropyl-2-methylthio-4H-quinolizin-4-one-1-carboxamide] was run?
**A.** 22%

**Q.** What about the inhibition at 2.5 µg/mL (IgE; Mus musculus, 96 h) of the same molecule?
**A.** 56%

**Q.** `CSc1c(C#N)c(=O)n2ccccc2c1C(=O)OCC1CC1` [S-2, Cyclopropylmethyl 3-cyano-2-methylthio-4H-quinolizin-4-one-1-carboxylate] was tested. Which inhibition at 5 µg/mL (IgG; Mus musculus, 96 h) did it give?
**A.** 27%

**Q.** And the inhibition at 5 µg/mL (IgE; Mus musculus, 96 h)?
**A.** 51%

**Q.** `CSc1c(C#N)c(=O)n2ccccc2c1C(=O)N(C(C)C)C(C)C` [S-63, 3-Cyano-N,N-diisopropyl-2-methylthio-4H-quinolizin-4-one-1-carboxamide] was tested. Which inhibition at 40 µg/mL (IgG; Mus musculus, 96 h) did it give?
**A.** 47%

**Q.** And the inhibition at 40 µg/mL (IgE; Mus musculus, 96 h)?
**A.** 85%

**Q.** Which results are given for `CSc1c(C#N)c(=O)n2ccccc2c1C(=O)OCCCc1ccccc1` [S-45, 3'-Phenylpropyl 3-cyano-2-methylthio-4H-quinolizin-4-one-1-carboxylate]?
**A.** inhibition at 5 µg/mL (IgG; Mus musculus, 96 h): 16%; inhibition at 5 µg/mL (IgE; Mus musculus, 96 h): 71%

**Q.** `CSc1c(C#N)c(=O)n2ccc(C)cc2c1C(=O)OCCc1ccccc1` [S-50, 2'-Phenylethyl 3-cyano-8-methyl-2-methylthio-4H-quinolizin-4-one-1-carboxylate] was tested. Which inhibition at 1 µg/mL (IgG; Mus musculus, 96 h) did it give?
**A.** 42%

**Q.** And the inhibition at 1 µg/mL (IgE; Mus musculus, 96 h)?
**A.** 64%

**Q.** With `CSc1c(C#N)c(=O)n2ccccc2c1C(=O)OC(C)C` [S-8, Isopropyl 3-cyano-2-methylthio-4H-quinolizin-4-one-1-carboxylate] as the molecule, how does the inhibition at 2.5 µg/mL (IgG; Mus musculus, 96 h) read?
**A.** 18%

**Q.** And the inhibition at 2.5 µg/mL (IgE; Mus musculus, 96 h)?
**A.** 36%

**Q.** With `CSc1c(C#N)c(=O)n2ccccc2c1C(=O)CC1CCN(c2ccccc2)CC1` [S-109, 3-Cyano-2-methylthio-1-(1-phenyl-4-piperidylacetyl)-4-quinolizin-4-one] as the molecule, how does the “Inhibition % of IgG” value (IgG) read?
**A.** 54%

**Q.** And the “Inhibition % of IgE” value (IgE)?
**A.** 77%

**Q.** How did the inhibition at 2.5 µg/mL (IgG; Mus musculus, 96 h) turn out when `CSc1c(C#N)c(=O)n2ccccc2c1C(=O)N1CCN(c2ccccc2)CC1` [S-91, 3-Cyano-2-methylthio-1-(4-phenyl-1-piperadinylcarbonyl)-4H-quinolizin-4-one] was run?
**A.** 11%

**Q.** And the inhibition at 2.5 µg/mL (IgE; Mus musculus, 96 h)?
**A.** 39%

**Q.** For `CCN(CC)C(=O)c1c(SC)c(C#N)c(=O)n2ccccc12` [S-62, 3-Cyano-N,N-diethyl-2-methylthio-4H-quinolizin-4-one-1-carboxamide], which inhibition at 40 µg/mL (IgG; Mus musculus, 96 h) is on record?
**A.** 36%

**Q.** And the inhibition at 40 µg/mL (IgE; Mus musculus, 96 h)?
**A.** 64%

**Q.** What does the source list for `CSc1c(C#N)c(=O)n2ccccc2c1C(=O)OC1CCCCC1C` (stereo not shown) [S-17, 2'-Methylcyclohexyl 3-cyano-2-methylthio-4H-quinolizin-4-one-1-carboxylate]?
**A.** inhibition at 0.25 µg/mL (IgG; Mus musculus, 96 h, 0.25 μg/ml): 7%; inhibition at 0.25 µg/mL (IgE; Mus musculus, 96 h, 0.25 μg/ml): 43%

**Q.** What does the source list for `N#Cc1c(SCc2ccccc2)c(C(=O)N2CCC(Cc3ccccc3)CC2)c2ccccn2c1=O` (single isomer, unassigned) [S-84B, 1-(4-Benzylpiperidinocarbonyl)-2-benzylthio-3-cyano-4H-quinolizin-4-one]?
**A.** Inhibition % of IgG (IgG): 32%; Inhibition % of IgE (IgE): 58%

**Q.** Which results are given for `CSc1c(C#N)c(=O)n2ccccc2c1C(=O)N(Cc1ccccc1)Cc1ccccc1` [S-60, 3-Cyano-N,N-dibenzyl-2-methylthio-4H-quinolizin-4-one-1-carboxamide]?
**A.** inhibition at 1 µg/mL (IgG; Mus musculus, 96 h): 25%; inhibition at 1 µg/mL (IgE; Mus musculus, 96 h): 58%

**Q.** Which inhibition at 5 µg/mL (IgG; Mus musculus, 96 h) does the source give for `CSc1c(C#N)c(=O)n2ccccc2c1C(=O)OC1CCCCCC1` [S-19, Cycloheptyl 3-cyano-2-methylthio-4H-quinolizin-4-one-1-carboxylate] here?
**A.** 27%

**Q.** And the inhibition at 5 µg/mL (IgE; Mus musculus, 96 h)?
**A.** 71%

**Q.** Which results are given for `CSc1c(C#N)c(=O)n2ccccc2c1C(=O)Cc1ccc(C)cc1C` [S-100, 3-Cyano-1-(2,4dimethylphenylacetyl)-2-methylthio-4H-quinolizin-4-one]?
**A.** inhibition at 2.5 µg/mL (IgG; Mus musculus, 96 h): 34%; inhibition at 2.5 µg/mL (IgE; Mus musculus, 96 h): 63%

**Q.** Which inhibition at 1 µg/mL (IgG; Mus musculus, 96 h) does the source give for `CSc1c(C#N)c(=O)n2ccccc2c1C(=O)OCc1ccc(Br)cc1` [S-23, 4'-Bromobenzyl 3-cyano-2-methylthio-4H-quinolizin-4-one-1-carboxylate] here?
**A.** 34%

**Q.** What about the inhibition at 1 µg/mL (IgE; Mus musculus, 96 h) of the same molecule?
**A.** 79%

**Q.** With `CSc1c(C#N)c(=O)n2ccccc2c1C(=O)OCc1ccccc1Cl` [S-39, 2'-Chlorobenzyl 3-cyano-2-methylthio-4H-quinolizin-4-one-1-carboxylate] as the molecule, how does the inhibition at 1 µg/mL (IgG; Mus musculus, 96 h) read?
**A.** 31%

**Q.** What about the inhibition at 1 µg/mL (IgE; Mus musculus, 96 h) of the same molecule?
**A.** 65%

**Q.** With `CSc1c(C#N)c(=O)n2ccccc2c1C(=O)CCc1ccccc1` [S-104, 3-Cyano-2-methylthio-1-(3-phenylpropionyl)-4H-quinolizin-4-one] as the molecule, how does the inhibition at 2.5 µg/mL (IgG; Mus musculus, 96 h) read?
**A.** 39%

**Q.** And the inhibition at 2.5 µg/mL (IgE; Mus musculus, 96 h)?
**A.** 66%

**Q.** With `CSc1c(C#N)c(=O)n2ccc(C)cc2c1C(=O)OC1CCCCC1` [S-18, Cyclohexyl 3-cyano-8-methyl-2-methylthio-4H-quinolizin-4-one-1-carboxylate] as the molecule, how does the inhibition at 2.5 µg/mL (IgG; Mus musculus, 96 h) read?
**A.** 34%

**Q.** What about the inhibition at 2.5 µg/mL (IgE; Mus musculus, 96 h) of the same molecule?
**A.** 54%

**Q.** `CSc1c(C#N)c(=O)n2ccccc2c1C(=O)OC1CCCCCCC1` [S-20, Cyclooctyl 3-cyano-2-methylthio-4H-quinolizin-4-one-1-carboxylate] was tested. Which inhibition at 5 µg/mL (IgG; Mus musculus, 96 h) did it give?
**A.** 52%

**Q.** What about the inhibition at 5 µg/mL (IgE; Mus musculus, 96 h) of the same molecule?
**A.** 84%

**Q.** Which results are given for `CSc1c(C#N)c(=O)n2ccccc2c1C(=O)OCCC(C)C` [S-11, Isopentyl 3-cyano-2-methylthio-4H-quinolizin-4-one-1-carboxylate]?
**A.** inhibition at 5 µg/mL (IgG; Mus musculus, 96 h): 30%; inhibition at 5 µg/mL (IgE; Mus musculus, 96 h): 66%

**Q.** For `CSc1c(C#N)c(=O)n2ccccc2c1C(=O)N1CCCc2ccccc21` [S-88, 3-Cyano-2-methylthio-1-(1,2,3,4-tetrahydroquinolin-1-ylcarbonyl)-4H-quinolizin-4-one], which inhibition at 2.5 µg/mL (IgG; Mus musculus, 96 h) is on record?
**A.** 7%

**Q.** And the inhibition at 2.5 µg/mL (IgE; Mus musculus, 96 h)?
**A.** 40%

**Q.** Which inhibition at 1 µg/mL (IgG; Mus musculus, 96 h) does the source give for `CSc1c(C#N)c(=O)n2ccccc2c1C(=O)OCC(c1ccccc1)c1ccccc1` [S-44, 2',2'-Diphenylethyl 3-cyano-2-methylthio-4H-quinolizin-4-one-1-carboxylate] here?
**A.** 18%

**Q.** What about the inhibition at 1 µg/mL (IgE; Mus musculus, 96 h) of the same molecule?
**A.** 54%

**Q.** For `CCC(C)OC(=O)c1c(SC)c(C#N)c(=O)n2ccccc12` (stereo not shown) [S-10, 1'-Methylpropyl 3-cyano-2-methylthio-4H-quinolizin-4-one-1-carboxylate], which inhibition at 2.5 µg/mL (IgG; Mus musculus, 96 h) is on record?
**A.** 27%

**Q.** What about the inhibition at 2.5 µg/mL (IgE; Mus musculus, 96 h) of the same molecule?
**A.** 48%

**Q.** How did the inhibition at 40 µg/mL (IgG; Mus musculus, 96 h) turn out when `CCOC(=O)c1c(SCc2ccccc2)c(C#N)c(=O)n2ccccc12` [S-59, Ethyl 3-cyano-2-benzylthio-4H-quinolizin-4-one-1-carboxylate] was run?
**A.** 49%

**Q.** And the inhibition at 40 µg/mL (IgE; Mus musculus, 96 h)?
**A.** 74%

**Q.** For `CSc1c(C#N)c(=O)n2ccccc2c1C(=O)OC/C=C/c1ccccc1` [S-47, trans-Cinnamyl 3-cyano-2-methylthio-4H-quinolizin-4-one-1-carboxylate], which inhibition at 40 µg/mL (IgG; Mus musculus, 96 h) is on record?
**A.** 28%

**Q.** What about the inhibition at 40 µg/mL (IgE; Mus musculus, 96 h) of the same molecule?
**A.** 60%

**Q.** Which results are given for `CSc1c(C#N)c(=O)n2ccccc2c1C(=O)OCCCCc1ccccc1` [S-49, 4'-Phenylbutyl 3-cyano-2-methylthio-4H-quinolizin-4-one-1-carboxylate]?
**A.** inhibition at 1 µg/mL (IgG; Mus musculus, 96 h): 56%; inhibition at 1 µg/mL (IgE; Mus musculus, 96 h): 80%

**Q.** What does the source list for `CSc1c(C#N)c(=O)n2ccccc2c1C(=O)CCCc1ccccc1` [S-105, 3-Cyano-2-methylthio-1-(4-phenylbutyryl)-4H-quinolizin-4one]?
**A.** inhibition at 1 µg/mL (IgG; Mus musculus, 96 h): 21%; inhibition at 1 µg/mL (IgE; Mus musculus, 96 h): 65%

**Q.** Which inhibition at 5 µg/mL (IgG; Mus musculus, 96 h) does the source give for `CSc1c(C#N)c(=O)n2ccccc2c1C(=O)OC1C2CC3CC(C2)CC1C3` (stereo not shown) [S-21, 2'-Adamantyl 3-cyano-2-methylthio-4H-quinolizin-4-one-1-carboxylate] here?
**A.** 47%

**Q.** And the inhibition at 5 µg/mL (IgE; Mus musculus, 96 h)?
**A.** 70%

**Q.** What does the source list for `CSc1c(C#N)c(=O)n2ccccc2c1C(=O)OC1CCCc2ccccc21` (stereo not shown) [S-22, 1',2',3',4'-Tetrahydro-1'-naphthyl 3-cyano-2-methylthio-4H-quinolizin-4-one-1-carboxylate]?
**A.** inhibition at 40 µg/mL (IgG; Mus musculus, 96 h): 42%; inhibition at 40 µg/mL (IgE; Mus musculus, 96 h): 82%
